Reference: ChEMBL document CHEMBL4483862, “Open-source discovery of chemical leads for next-generation chemoprotective antimalarials” (2018)

Tested on: Plasmodium berghei
Experiment: Luciferase/luciferin-expressing antifolate-resistant parasites were used to infect a culture of HepG2 cells that were pre-incubated with compounds. Infected hepatocytes emit light due to the luciferase reaction. Assay results are presented as the percent inhibition of light emission compared to control. […]
Format: functional
Conditions: sporozoite; for IC90: read-out: LUCIFERASE INFECTION ASSAY - IC90

Row | SMILES | IC90 | further results
1 | O=C(c1cccs1)N1CCN(C2c3ccccc3-c3ccccc32)CC1 | > 9.15 µM | IC50 (PBLUC_HILL_SLOPE 11.4, PBLUC_R_SQUARED 0.0886, read-out: LUCIFERASE INFECTION ASSAY - IC50): > 9.15 µM
2 | CCc1ccc(C(CNC(=O)c2ccc3c(=O)n(-c4ccccc4F)c(=S)[nH]c3c2)N(C)C)cc1 (stereo not drawn) | > 10 µM | IC50 (PBLUC_HILL_SLOPE 11.1, PBLUC_R_SQUARED 0.257, read-out: LUCIFERASE INFECTION ASSAY - IC50): 9.21 µM
3 | CCNC(=O)C1CCCN(Cc2ccc3ccccc3c2Br)CC1 (stereo not drawn) | 3.91 µM | IC50 (PBLUC_HILL_SLOPE 11.4, PBLUC_R_SQUARED 0.606, read-out: LUCIFERASE INFECTION ASSAY - IC50): 3.23 µM
4 | COc1ccc(-c2cn3c(-c4ccc(OC)nc4)cnc3cn2)cn1 | > 9.9 µM | IC50 (PBLUC_HILL_SLOPE 11.1, PBLUC_R_SQUARED 0.0252, read-out: LUCIFERASE INFECTION ASSAY - IC50): 9.58 µM
5 | O=C(Nc1ccc(OC(F)(F)F)cc1)Nc1cc(-c2ccccc2)n[nH]1 | 4.02 µM | IC50 (PBLUC_HILL_SLOPE 11.1, PBLUC_R_SQUARED 0.558, read-out: LUCIFERASE INFECTION ASSAY - IC50): 3.3 µM
6 | COc1cc(OC)cc(-c2cn3c(-c4cccc(N(C)C)c4)cnc3cn2)c1 | > 8.81 µM | IC50 (PBLUC_HILL_SLOPE 11.4, PBLUC_R_SQUARED 0.677, read-out: LUCIFERASE INFECTION ASSAY - IC50): 7.8 µM
7 | COc1ccc(-c2cnc3cnc(-c4ccc(CO)cc4)cn23)cc1 | 9.11 µM | IC50 (PBLUC_HILL_SLOPE 11.2, PBLUC_R_SQUARED 0.457, read-out: LUCIFERASE INFECTION ASSAY - IC50): 7.48 µM
8 | CSc1nc2ccccc2c(=O)n1-c1c(C)cccc1C | > 11.1 µM | IC50 (PBLUC_HILL_SLOPE 11.2, PBLUC_R_SQUARED 0.357, read-out: LUCIFERASE INFECTION ASSAY - IC50): 10.5 µM
9 | Nc1nc(C2COc3ccccc3O2)ncc1S(=O)(=O)c1ccc(Cl)cc1 (stereo not drawn) | > 8.17 µM | IC50 (PBLUC_HILL_SLOPE 11.1, PBLUC_R_SQUARED 0.295, read-out: LUCIFERASE INFECTION ASSAY - IC50): 7.39 µM
10 | CSc1nc(Sc2nnc(-c3ccc(C(C)(C)C)cc3)[nH]2)cc(Sc2nnc(-c3ccc(C(C)(C)C)cc3)[nH]2)n1 | > 5.6 µM | IC50 (PBLUC_HILL_SLOPE 11.3, PBLUC_R_SQUARED 0.117, read-out: LUCIFERASE INFECTION ASSAY - IC50): 5.38 µM
11 | COc1ccc(-c2cnc3cnc(-c4ccc(C(=O)NC5CCCC5)cc4)cn23)cc1 | 7.76 µM | IC50 (PBLUC_HILL_SLOPE 11.3, PBLUC_R_SQUARED 0.296, read-out: LUCIFERASE INFECTION ASSAY - IC50): 6.39 µM
12 | NC(c1ccccc1)c1csc(Nc2ccc(-c3ccccc3)nn2)n1 (stereo not drawn) | 3.73 µM | IC50 (PBLUC_HILL_SLOPE 11.1, PBLUC_R_SQUARED 0.371, read-out: LUCIFERASE INFECTION ASSAY - IC50): 3.06 µM
13 | Cc1sc2nc(-c3cccnc3)nc(N3CCN(S(=O)(=O)/C=C/c4ccccc4)CC3)c2c1C | > 10 µM | IC50 (PBLUC_HILL_SLOPE 11.2, PBLUC_R_SQUARED 0.469, read-out: LUCIFERASE INFECTION ASSAY - IC50): 8.64 µM
14 | CCOC(=O)c1c(C)nc(-c2ccco2)nc1SCc1ncc(-c2ccc(F)cc2)o1 | 3.58 µM | IC50 (PBLUC_HILL_SLOPE 11.1, PBLUC_R_SQUARED 0.631, read-out: LUCIFERASE INFECTION ASSAY - IC50): 2.94 µM
15 | O=C(Nn1cnc2sc3c(c2c1=O)CCCC3)c1cc(Br)ccc1O | > 10 µM | IC50 (PBLUC_HILL_SLOPE 11.5, PBLUC_R_SQUARED 0.145, read-out: LUCIFERASE INFECTION ASSAY - IC50): 9.56 µM
16 | CCN1C(=O)N(C2Cc3ccccc3C2)C(=O)C12CCN(Cc1ccc(-c3ccco3)cc1)CC2 | > 7.03 µM | IC50 (PBLUC_HILL_SLOPE 11.2, PBLUC_R_SQUARED 0.677, read-out: LUCIFERASE INFECTION ASSAY - IC50): 6.46 µM
17 | CCCNC(=O)c1c(NC(=O)c2cc(OC)cc(OC)c2)nc2ccccn12 | > 8.63 µM | IC50 (PBLUC_HILL_SLOPE 11.4, PBLUC_R_SQUARED 0.597, read-out: LUCIFERASE INFECTION ASSAY - IC50): 7.32 µM
18 | COc1cc(OC)c(C2=CCN(c3cc(=O)n4ccccc4n3)CC2)c(OC)c1 | > 10 µM | IC50 (PBLUC_HILL_SLOPE 11.4, PBLUC_R_SQUARED 0.492, read-out: LUCIFERASE INFECTION ASSAY - IC50): 9.03 µM
19 | COc1ccc(-c2cnc3cnc(-c4ccc(OC(F)(F)F)cc4)cn23)cn1 | > 8.54 µM | IC50 (PBLUC_HILL_SLOPE 11.4, PBLUC_R_SQUARED 0.148, read-out: LUCIFERASE INFECTION ASSAY - IC50): > 8.54 µM
20 | CN(C)c1ccc(NC(=O)N2[C@@H]3CC[C@@H](C3)[C@H]2c2nc3cccc(OCc4ccc(F)cc4)c3[nH]2)cc1 | > 10 µM | IC50 (PBLUC_HILL_SLOPE 11.3, PBLUC_R_SQUARED 0.0257, read-out: LUCIFERASE INFECTION ASSAY - IC50): > 10 µM

Row | SMILES | IC90 | further results
21 | CN(C)C(=O)c1cccc(-c2cn3c(-c4ccc(CO)cc4)cnc3cn2)c1 | > 8.86 µM | IC50 (PBLUC_HILL_SLOPE 11.4, PBLUC_R_SQUARED 0.237, read-out: LUCIFERASE INFECTION ASSAY - IC50): 8.26 µM
22 | Cc1cc(C)nc(SCC(=O)N2CCN(C(=O)c3ccco3)CC2)n1 | 3.74 µM | IC50 (PBLUC_HILL_SLOPE 11.5, PBLUC_R_SQUARED 0.424, read-out: LUCIFERASE INFECTION ASSAY - IC50): 3.09 µM
23 | CCS(=O)(=O)N1CCC(C(=O)N(Cc2ccccc2)c2nc(-c3ccc(F)cc3)cs2)CC1 | > 10 µM | IC50 (PBLUC_HILL_SLOPE 11.3, PBLUC_R_SQUARED 0.297, read-out: LUCIFERASE INFECTION ASSAY - IC50): 8.84 µM
24 | CC1Sc2ccc(Cl)cc2C(=O)/C1=C/c1ccc(C(F)(F)F)cc1 (stereo not drawn) | > 8.95 µM | IC50 (PBLUC_HILL_SLOPE 11.4, PBLUC_R_SQUARED 0.0512, read-out: LUCIFERASE INFECTION ASSAY - IC50): > 8.95 µM
25 | Cc1ccc(NC(=O)C(Sc2nnc3n(-c4ccccc4)c(=O)c4ccccc4n23)c2ccccc2)c([N+](=O)[O-])c1 (stereo not drawn) | > 10 µM | IC50 (PBLUC_HILL_SLOPE 11.5, 36.4, PBLUC_R_SQUARED 0.176, 0.319, read-out: LUCIFERASE INFECTION ASSAY - IC50): 9.56 µM
26 | CCn1c2ccccc2c2cc(NC(=O)COC(=O)Cc3cccs3)ccc21 | > 10 µM | IC50 (PBLUC_HILL_SLOPE 11.3, PBLUC_R_SQUARED 0.588, read-out: LUCIFERASE INFECTION ASSAY - IC50): 9.26 µM
27 | Cc1ccc(C(NCC(=O)Nc2cc(S(C)(=O)=O)ccc2Cl)c2ccccc2)cc1C (stereo not drawn) | 4.49 µM | IC50 (PBLUC_HILL_SLOPE 11.2, PBLUC_R_SQUARED 0.465, read-out: LUCIFERASE INFECTION ASSAY - IC50): 3.69 µM
28 | Cn1c(SCC(=O)NC2CCCc3ccccc32)nnc1-c1cccnc1 (stereo not drawn) | > 10 µM | IC50 (PBLUC_HILL_SLOPE 11.1, PBLUC_R_SQUARED 0.239, read-out: LUCIFERASE INFECTION ASSAY - IC50): 8.8 µM
29 | O=C(Nc1cccc(Oc2cnccn2)c1)C(c1ccccc1)c1ccccc1 | > 10 µM | IC50 (PBLUC_HILL_SLOPE 11.4, PBLUC_R_SQUARED 0.171, read-out: LUCIFERASE INFECTION ASSAY - IC50): 8.47 µM
30 | Cn1cc(-c2cc(-c3cccc4ccccc34)cnc2N)cn1 | > 11 µM | IC50 (PBLUC_HILL_SLOPE 11.1, PBLUC_R_SQUARED 0.24, read-out: LUCIFERASE INFECTION ASSAY - IC50): 10.4 µM
31 | CCc1ccc(Cl)c(CC)c1NC(=O)Cc1c(C)nn(CC(C)C)c1C | 4.06 µM | IC50 (PBLUC_HILL_SLOPE 11.4, PBLUC_R_SQUARED 0.518, read-out: LUCIFERASE INFECTION ASSAY - IC50): 3.35 µM
32 | NS(=O)(=O)c1ccc(CNC(=O)Cn2cnc3ccccc3c2=O)cc1 | > 8.86 µM | IC50 (PBLUC_HILL_SLOPE 11.1, PBLUC_R_SQUARED 0.12, read-out: LUCIFERASE INFECTION ASSAY - IC50): > 8.86 µM
33 | CCC(C)c1ccc(NC(=O)Cc2ccc(NS(=O)(=O)c3ccc(Cl)c(Cl)c3)cc2)cc1 (stereo not drawn) | > 10 µM | IC50 (PBLUC_HILL_SLOPE 11.4, PBLUC_R_SQUARED 0.218, read-out: LUCIFERASE INFECTION ASSAY - IC50): 9.54 µM
34 | C=CCn1c(-c2ccccc2)c(C)sc1=Nc1ccc(Cl)cc1 | > 10 µM | IC50 (PBLUC_HILL_SLOPE 11.2, PBLUC_R_SQUARED 0.0711, read-out: LUCIFERASE INFECTION ASSAY - IC50): 9.93 µM
35 | CN1CCCN(C(=O)C2CCN(c3oc(-c4ccco4)nc3C#N)CC2)c2nc3ccccc3nc21 | 4.67 µM | IC50 (PBLUC_HILL_SLOPE 11.5, PBLUC_R_SQUARED 0.327, read-out: LUCIFERASE INFECTION ASSAY - IC50): 3.86 µM
36 | O=C(COC(=O)c1ccc2[nH]c3c(c2c1)CCCC3)c1ccc2c(c1)OCCO2 | 9.92 µM | IC50 (PBLUC_HILL_SLOPE 11.3, PBLUC_R_SQUARED 0.654, read-out: LUCIFERASE INFECTION ASSAY - IC50): 8.17 µM
37 | COc1ccc(-c2cnc3cnc(-c4cccc(C(=O)N(C)C)c4)cn23)cc1 | 4.08 µM | IC50 (PBLUC_HILL_SLOPE 11.5, PBLUC_R_SQUARED 0.453, read-out: LUCIFERASE INFECTION ASSAY - IC50): 3.37 µM
38 | CC(Sc1nnc(-c2ccc[nH]2)o1)C(=O)c1ccc(C(C)(C)C)cc1 (stereo not drawn) | > 10 µM | IC50 (PBLUC_HILL_SLOPE 11.5, PBLUC_R_SQUARED 0.42, read-out: LUCIFERASE INFECTION ASSAY - IC50): 8.92 µM
39 | COc1ccc(-c2cnc3cnc(-c4cccc(C(=O)NCCO)c4)cn23)cn1 | > 8.47 µM | IC50 (PBLUC_HILL_SLOPE 11.3, PBLUC_R_SQUARED 0.241, read-out: LUCIFERASE INFECTION ASSAY - IC50): 8.2 µM
